This is an account of results in EP1661955A1, “Antifouling coating comprising a polymer with functional groups bonded to an enzyme” (Nederlandse Organisatie voor …, priority 2004, dated 2006).

≈ marks a conversion by molar mass, not a printed value.

This assay deals with cyprid larvae of the barnacle species Balanus amphitrite. As to the kind of experiment: Barnacle settlement inhibition test, enzymes in solution. The assay is classed as in vivo. The settings on record: reference compound in solution; concentration at which 50 % settlement reduction takes place. From the text: The barnacle settlement test determines settlement inhibitory activity of biocidal compounds. For this test mass reared cyprid larvae of the barnacle species Balanus amphitrite are used. Adult barnacles, kept under standardised conditions, are forced to produce naupliar larvae that are collected and grown up separately at constant temperature and a fixed light:dark period. When larvae reach the cyprid stage, which is the settling phase, they are collected and set apart prior to testing.
Test compounds are usually tested in a range of concentrations prepared directly in seawater or after pre-dissolution in a suitable solvent. Settlement tests are carried out in polystyrene multiwell plates. Wells contain either 1 mL of a test solution or 1 mL of a control solution. Plates are incubated for 24 - 48 hours under constant temperature and light:dark regime to allow settlement and metamorphosis of the cyprids.
After incubation the wells are screened and numbers of settled and non-settled larvae counted using a stereo microscope. Numbers of settled larvae are expressed as a percentage of total larvae in the well. Average % settlement is calculated in four replicates. Subsequently a settlement response curve in relation to substance concentration is drawn and an EC50 value, concentration at which 50 % settlement reduction takes place, calculated. […]

In the case of `CCCCCCCCn1sc(Cl)c(Cl)c1=O` [Seanine 211], the EC50 value was found to be 0.4 mg/L (≈ 1.42 µM).
